One experiment relates to VEGF. The experiment is described as follows: phage spot ELISA on VEGF. As to conditions: for S/N: phage spot ELISA signal/noise; for S/N / ELISA: S3 Table sheet VEGF; for ELISA: phage spot ELISA signal. It is filed as binding. The text has this: (§1) To determine the performance of the libraries for ligand discovery we chose a panel of eight protein targets, which have no structural homology and a wide mass range (Fig 7C). We screened these eight targets with solution panning strategy and two additional plate panning for CD8α/β and CD28, thus ten panning campaigns in total. We consider clones showing spot phage ELISA signal > 0.3 and signal/noise ratio > 2 as positive hits. At least one binding hit was discovered for nine out of the ten panning campaigns, surpassing the success rate of the best DCP scaffolds reported previously. We also obtained the NGS data for these screening and the ranking of clones for their enrichment along the rounds of screening was analyzed and considered the top-ranking clones as potential hits. Based on their sequence diversity we selected 16 potential hits spanning five protein targets for peptide synthesis in their linear form. Seven of these are hits with positive phage ELISA signal and nine were selected based on NGS ranking without spot ELISA available. Subsequently, we conducted in vitro folding experiments on these peptides in various buffers. We observed a strong propensity for spontaneous folding regardless of the buffer condition. All HCP hits tested successfully folded into three-disulfide-containing product within two days in a universal buffer system (PBS, pH 7.4, 50% DMSO) without the need for a redox pair, as shown in Fig 8A. The binding of these folded peptides to their respective target proteins was confirmed using SPR (Table 4 and S1 Data) and binding kinetics are exemplified by the high-affinity peptide 5ji4-CRD7-2 (see Fig 8B). Among seven selected ELISA-positive hits, all of them were successfully synthesized and in vitro folded with three disulfide bonds and five were proven to be validated binders by SPR (Table 4). Nine peptides selected from the NGS ranking were synthesized and folded with the expected number of disulfide bonds and five of them bound to their target with affinities in the μM range as determined by SPR (Table 4). In general, binding affinities for these SPR-validated initial hits are weak, with Kd values in the micromolar range and fast on- and off-rates. There are two exceptions with binding affinities in the nanomolar range.
(§2) The 5ji4 libraries were constructed following the Kunkel mutagenesis method and the solution panning protocol was followed as previously described. After four to five rounds of binding selection, while eluted pool was subjected to NGS analysis, individual phage clones were also picked and analyzed with phage spot ELISA. Positive clones were subjected to SANGER sequencing.
Background: ELISA stands for enzyme-linked immunosorbent assay.

Another experiment deals with CD28. The experiment is described as follows: phage spot ELISA on CD28. The experiment is classed as binding. As to conditions: for S/N: phage spot ELISA signal/noise; for ELISA: phage spot ELISA signal.
Excerpt: as §1, §2

Setting [1] is: S3 Table sheet CD28-1 (panning campaign 1).
[2] abbreviates: S3 Table sheet CD28-2 (panning campaign 2).

Where a SMILES comes first, the peptide text is derived from it. Bridges are numbered along the chain shown (N, C = ends).

The text below walks through data of publication PMC11611271, “Rapid prediction of key residues for foldability by machine learning model enables the design of highly functional libraries with hyperstable constrained peptide scaffolds” (PLOS Computational Biology, 2024).

Consider “PCECDVNVETYTVSSSEECKRLCWGFGQSDCRVHCG [VEGF clone 26, phage clone, 5JI4 library, VEGF panning]”, for which, in the experiment on VEGF, the S/N stood at 30.2373 and the ELISA was found to be 3.568.
For “PCECFMYDILVGLASSEECERLCRKLGVTNCRVHCG [VEGF clone 2, phage clone, 5JI4 library, VEGF panning]” the same measures were 30.9 and 6.00.
In the experiment on CD28 (setting [1]), “RANAFWVVLVPDGGSSEECERLCRKLGVTNCRVHCG [CD28-1 clone 4, phage clone, 5JI4 library, CD28-1 panning]” had a S/N of 2.932 and an ELISA of 0.4.
For “PYECWRGQYFIIYKSSEECERLCRKLGVTNCRVHCG [CD28-1 clone 11, phage clone, 5JI4 library, CD28-1 panning]” the same measures were 2.209 and 0.201.
With “PCECYFQGVNVGESSSEECERLCRKLGVTNCRVHCG [VEGF clone 16, phage clone, 5JI4 library, VEGF panning]”, in the experiment on VEGF, the S/N came to 40.618 and the ELISA was 3.615.
In the experiment on CD28 (setting [1]), “PCEYQTWRVVIPDASSEECERLCRKLGVTNCRVHCG [CD28-1 clone 3, phage clone, 5JI4 library, CD28-1 panning]” came in with a S/N of 4.407 and an ELISA of 0.4.
In the experiment with VEGF, “PCECIILNVVVGESSSEECERLCRKLGVTNCRVHCG [VEGF clone 4, phage clone, 5JI4 library, VEGF panning]” showed a S/N of 2.9 and an ELISA of 4.32.
The like results for “PCECYFYDIVVGFSSSEECERLCRKLGVTNCRVHCG [VEGF clone 1, phage clone, 5JI4 library, VEGF panning]” were, in that order, 58.3 and 6.00.
In the experiment on VEGF, “PCECFMYGVYVGHSSSEACERLCRKLGVTNCRVHCG [VEGF clone 9, phage clone, 5JI4 library, VEGF panning]” gave a S/N of 39.95 and an ELISA of 3.995.
Turning to “PCESQSMQHFIIYNSSEECERLCRKLGVTNCRVHCG [CD28-1 clone 1, phage clone, 5JI4 library, CD28-1 panning]”, in the experiment with CD28 (setting [1]), the S/N amounted to 4.839 and the ELISA came to 0.542.
For “PCESIQDVWIIHDSSEECERLCRKLGVTNCRVHCG [CD28-1 clone 6, phage clone, 5JI4 library, CD28-1 panning]” the same measures were 2.28 and 0.244.
Regarding “PCECITKWSDWGFSSSEECERLCRKLGVTNCRVHCG [VEGF clone 24, phage clone, 5JI4 library, VEGF panning]”, in the experiment with VEGF, the S/N stood at 9.024 and the ELISA stood at 0.767.
Turning to “PWNANVNGETYTVSSSEECERLCSAGLVNSCRVHCG [CD28-2 clone 1, phage clone, 5JI4 library, CD28-2 panning]”, in the experiment on CD28 (setting [2]), the S/N is reported as 7.9375 and the ELISA worked out at 0.508.
In the experiment on VEGF, “PCECYMSNVNVGESSSEECERLCRKLGVTNCRVHCG [VEGF clone 22, phage clone, 5JI4 library, VEGF panning]” gave a S/N of 29.6607 and an ELISA of 3.322.
For “PCECFILGMAVGQSSSEECERLCRKLGVTNCRVHCG [VEGF clone 23, phage clone, 5JI4 library, VEGF panning]” the same measures were 29.8545 and 3.284.
The like results for “PCECYIYNTGAGWGSSEECARLCRKLGVTNCRVHCG [VEGF clone 15, phage clone, 5JI4 library, VEGF panning]” were, in that order, 30.6033 and 3.703.
In the experiment with VEGF, “PCECLMYRVXVGHSSSEACERLCRKLGVTNCRVHCG [VEGF clone 3, phage clone, 5JI4 library, VEGF panning]” showed a S/N of 42.6 and an ELISA of 4.34.
For “PCECYFQXVKVGESSSEECERLCRKLGVTNCRVHCG [VEGF clone 6, phage clone, 5JI4 library, VEGF panning]” the same measures were 32.5 and 4.23.
For “PCECYFSNTMVGHSSSEECERLCRNLGVTNCRVHCG [VEGF clone 5, phage clone, 5JI4 library, VEGF panning]” the same measures were 40.6 and 4.23.
In the experiment on VEGF, “PCECFFNAVKVGWSSSEECERLCRKLGVTNCRVHCG [VEGF clone 13, phage clone, 5JI4 library, VEGF panning]” yielded a S/N of 35.8857 and an ELISA of 3.768.
For the compound `CC(C)C[C@@H]1NC(=O)[C@H](CCCNC(=N)N)NC(=O)[C@H](CCCCN)NC(=O)[C@@H]2CSSC[C@H](NC(=O)[C@H](CCC(=O)O)NC(=O)[C@@H](NC(=O)[C@@H]3CCCN3)CSSC[C@@H](C(=O)NCC(=O)O)NC(=O)[C@H](Cc3c[nH]cn3)NC(=O)[C@H](C(C)C)NC(=O)[C@H](CCCNC(=N)N)NC(=O)[C@@H]3CSSC[C@H](NC1=O)C(=O)N[C@@H](Cc1c[nH]c4ccccc14)C(=O)NCC(=O)N[C@@H](Cc1ccccc1)C(=O)NCC(=O)N[C@@H](CCC(N)=O)C(=O)N[C@@H](CO)C(=O)N[C@@H](CC(=O)O)C(=O)N3)C(=O)N[C@@H](CC(=O)O)C(=O)N[C@@H](C(C)C)C(=O)N[C@@H](CC(N)=O)C(=O)N[C@@H](C(C)C)C(=O)N[C@@H](CCC(=O)O)C(=O)N[C@@H]([C@@H](C)O)C(=O)N[C@@H](Cc1ccc(O)cc1)C(=O)N[C@@H]([C@@H](C)O)C(=O)N[C@@H](C(C)C)C(=O)N[C@@H](CO)C(=O)N[C@@H](CO)C(=O)N[C@@H](CO)C(=O)N[C@@H](CCC(=O)O)C(=O)N[C@@H](CCC(=O)O)C(=O)N2` [5ji4-VEGF-3] (H-PCECDVNVETYTVSSSEECKRLCWGFGQSDCRVHCG-OH; disulfide 2-35, 4-19, 23-31), in the experiment on VEGF (phage spot ELISA of the clone, positive hit: signal > 0.3 and signal/noise > 2), the ELISA signal is recorded as 3.07. Further, in the experiment with VEGF (phage spot ELISA signal/noise ratio), the ELISA s/n is 32.18.
For the compound “PCECQFYGTMVGWSSSEECERLCRKLGVTNCRVHCG [VEGF clone 20, phage clone, 5JI4 library, VEGF panning]”, in the experiment on VEGF, the S/N came to 37.3956 and the ELISA came out at 3.403.
For “PCECLMYGHHVGSASSEECERLCRKLGVTNCRVHCG [VEGF clone 19, phage clone, 5JI4 library, VEGF panning]” the same measures were 36.6559 and 3.409.
For “PCECMFHGVPVGFSSSEECERLCRKLGVTNCRVHCG [VEGF clone 8, phage clone, 5JI4 library, VEGF panning]” the same measures were 37.2 and 4.06.
For “PCECYLPKVMVGFSSSEECERLCRNLGVTNCRVHCG [VEGF clone 10, phage clone, 5JI4 library, VEGF panning]” the same measures were 12.4652 and 3.939.
Take “PCECWFYDALVGWTSSEECERLCRKLGVTNCRVHCG [VEGF clone 7, phage clone, 5JI4 library, VEGF panning]”: in the experiment on VEGF, the S/N stood at 41.3 and the ELISA stood at 4.13.
The like results for “PCECWMYHTNVGHGSSEECERLCRKLGVTNCRVHCG [VEGF clone 21, phage clone, 5JI4 library, VEGF panning]” were, in that order, 29.9279 and 3.322.
The like results for “PCECYFETTHVGFASSEECERLCRKLGVTNCRVHCG [VEGF clone 18, phage clone, 5JI4 library, VEGF panning]” were, in that order, 10.4498 and 3.438.
For “PCECPRWWSHDGGYSSEECERLCRKLGVTNCRVHCG [VEGF clone 11, phage clone, 5JI4 library, VEGF panning]” the same measures were 38.9 and 3.89.
In the experiment on VEGF, “PCECIXXDSFVGKSSSEECERLCRKLGVTNCRVHCG [VEGF clone 25, phage clone, 5JI4 library, VEGF panning]” yielded a S/N of 3.092 and an ELISA of 0.269.
For “PCECVVLDTVVGKASSEECERLCRKLGVTNCRVHCG [VEGF clone 17, phage clone, 5JI4 library, VEGF panning]” the same measures were 37.5957 and 3.534.
In the experiment with VEGF, “PCECFMMEVKVGTGSSEECERLCRKLGVTNCRVHCG [VEGF clone 14, phage clone, 5JI4 library, VEGF panning]” displayed a S/N of 42.5632 and an ELISA of 3.703.
For “PCECHFXGVHVGRSSSEECERLCRKLGVTNCRVHCG [VEGF clone 12, phage clone, 5JI4 library, VEGF panning]” the same measures were 15.0395 and 3.805.
